Test results: patent publication US20240408169A1 (priority 2023, published 2024)
Like-named read-outs stand apart in the source and are kept apart here. *1 amine or outer side, *2 acyl side, *3 side chain or, on linkers, in order; H or OH if unused. Where a SMILES comes first, the peptide text is derived from it. Bridges are numbered along the chain shown (N, C = ends). [ ]: non-standard residue; d: D form. The star is where a group is joined. X124 = CC(C)C(=O)N1[C@@H]2CC[C@H]1C=C(c1ccc(F)cc1C[C@@H](C(=O)[*:2])N(C)[*:1])C2; X209 = CN([C@@H](Cc1cc(Cl)ccc1-c1cnc2nn(C)cc2c1)C(=O)[*:2])[*:1]; X183 = CN([C@@H](Cc1cc(Cl)ccc1-c1ccc2nncn2c1)C(=O)[*:2])[*:1]; X162 = COc1cncc(-c2ccc(Cl)cc2C[C@@H](C(=O)[*:2])N(C)[*:1])c1; NMehhhLys(Me) = CN([C@@H](CCCCCCCN(C)[*:3])C(=O)[*:2])[*:1]; X174 = CN([C@@H](Cc1cc(Cl)cnc1-c1cnn(C)c1)C(=O)[*:2])[*:1]; X188 = CN([C@@H](Cc1cc(Cl)ccc1-c1ccn(C)n1)C(=O)[*:2])[*:1]; NMe(hhhLys) = CN([C@@H](CCCCCCCN[*:3])C(=O)[*:2])[*:1]; Oxane2carbonyl(2R-CF3) = O=C([C@@]1(C(F)(F)F)CCCCO1)*; cBuCO(3,3-F2-1-CF3) = O=C(C1(C(F)(F)F)CC(F)(F)C1)*; NMePhe(2,5-Cl2) = CN[C@@H](Cc1cc(Cl)ccc1Cl)C(=O)O; X161 = Cc1ccc(F)cc1C[C@@H](C(=O)[*:2])N(C)[*:1]; Pro(trans-4-F) = O=C(O)[C@@H]1C[C@@H](F)CN1; Gly(cPr) = N[C@H](C(=O)O)C1CC1

Key:
[1] = target: T1, CyclinA2/CDK2 (Homo sapiens, UniProt P20248); assay: Fluorescence Polarization (FP) competitive binding assay, Cyclin A2/Cdk2;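 further: plates equilibrated two hours at room temperature before polarization reading, IC50 fitted from eight-concentration compound titration curves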
T1 construct: purchased CRELUX Protein Services

[2] = target: T2, CyclinB1/CDK1 (Homo sapiens, UniProt P14635); assay: Fluorescence Polarization (FP) competitive binding assay, Cyclin B1/Cdk1;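 further: fluorescence polarization read after equilibration at room temperature, with IC50 taken from serially diluted dose-response curves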
T2 construct: purchased Eurofins, discovery 14-450

[3] = target: T3, CyclinE1/CDK2 (Homo sapiens, UniProt P24864); assay: Fluorescence Polarization (FP) competitive binding assay, Cyclin E1/Cdk2;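 further: readings taken after two-hour equilibration at room temperature in HEPES buffer with NaCl, DTT, NP-40 and BSA, IC50 fitted from eight-concentration serial dilution series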
T3 construct: purchased Eurofins, discovery 14-475

[4] = test system: NCI-H1048 cells; assay: MTT proliferation assay, NCI-H1048; assay type: cell-based; details: 5 days compound exposure, 1:3 serial dilution starting at 10 μM;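 further: Dose-response in 96-well plates over 8 or 10 concentration points, with exposure spanning 3-4 cell doublings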
[5] = test system: OVCAR3 cells; assay: MTT proliferation assay, OVCAR3; assay type: cell-based; details: 5 days compound exposure, 1:3 serial dilution starting at 10 μM;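 further: compound given as an 8- or 10-point series, one day after plating, with exposure covering roughly 3-4 cell doublings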
[6] = 8 nM Cyclin A2/Cdk2, 2 nM FAM probe, average of 2-3 independent experiments, read-out: Cyclin A FP IC50
[7] = 10 nM Cyclin B1/Cdk1, 2 nM FAM probe; average of 2-3 independent experiments; read-out: Cyclin B FP IC50
[8] = 10 nM Cyclin E1/Cdk2, 2 nM FAM probe, average of 2-3 independent experiments, read-out: Cyclin E FP IC50
[9] = read-out: Cyclin A FP IC50, 8 nM Cyclin A2/Cdk2, 2 nM FAM probe, average of 2-3 independent experiments
[10] = read-out: Cyclin B FP IC50; 10 nM Cyclin B1/Cdk1, 2 nM FAM probe; average of 2-3 independent experiments

SMILES	IC50 [1, 6] [nM]	IC50 [2, 7] [nM]	IC50 [3, 8] [nM]	GI50 [4] [nM]	GI50 [5] [nM]	IC50 [1, 9] [nM]	IC50 [2, 10] [nM]	IC50 [3] [nM]	IC50 [1] [nM]
CC(C)C[C@@H]1NC(=O)[C@@H](N(C)C(=O)[C@@H](NC(=O)[C@@H]2C[C@@H](F)CN2C(=O)C2(C(F)(F)F)CC(F)(F)C2)C2CC2)CCCCCCCN(C)C(=O)[C@H](Cc2cc(F)ccc2C2=C[C@@H]3CC[C@H](C2)N3C(=O)C(C)C)N(C)C1=O [Example 317] ({cBuCO(3,3-F2-1-CF3)}-[Pro(trans-4-F)][Gly(cPr)][NMehhhLys(Me)]L[X124]; lactam 3-C)	30	20	250	10	10	–	–	–	–
CC(C)C[C@@H]1NC(=O)[C@@H](N(C)C(=O)[C@@H](NC(=O)[C@@H]2C[C@@H](F)CN2C(=O)C2(C(F)(F)F)CC(F)(F)C2)C2CC2)CCCCCCCN(C)C(=O)[C@H](Cc2cc(Cl)ccc2-c2cnc3nn(C)cc3c2)N(C)C1=O [Example 249] ({cBuCO(3,3-F2-1-CF3)}-[Pro(trans-4-F)][Gly(cPr)][NMehhhLys(Me)]L[X209]; lactam 3-C)	–	–	–	10	10	20	20	590	–
Cc1ccc(F)cc1C[C@H]1C(=O)NCCCCCCC[C@H](N(C)C(=O)[C@@H](NC(=O)[C@@H]2C[C@@H](F)CN2C(=O)C2(C(F)(F)F)CC(F)(F)C2)C2CC2)C(=O)N[C@@H](CC(C)C)C(=O)N1C [Example 264] ({cBuCO(3,3-F2-1-CF3)}-[Pro(trans-4-F)][Gly(cPr)][NMe(hhhLys)]L[X161]; lactam 3-C)	90	20	290	40	30	–	–	–	–
Cc1nnc(-c2ccc(Cl)cc2C[C@H]2C(=O)NCCCCC=CC[C@H](N(C)C(=O)[C@@H](NC(=O)[C@@H]3C[C@@H](F)CN3C(=O)C3(C(F)(F)F)CCC3)C3CC3)C(=O)N[C@@H](CC(C)C)C(=O)N2C)o1 (single isomer, unassigned) [Example 117-P1]	80	20	340	230	180	–	–	–	–
CC(C)C[C@@H]1NC(=O)[C@@H](N(C)C(=O)[C@@H](NC(=O)[C@@H]2C[C@@H](F)CN2C(=O)C2(C(F)(F)F)CC(F)(F)C2)C2CC2)CCCCCCCN(C)C(=O)[C@H](Cc2cc(Cl)ccc2-c2ccc3nncn3c2)N(C)C1=O [Example 178] ({cBuCO(3,3-F2-1-CF3)}-[Pro(trans-4-F)][Gly(cPr)][NMehhhLys(Me)]L[X183]; lactam 3-C)	50	20	5460	1180	2570	–	–	–	–
CC(C)C[C@@H]1NC(=O)[C@@H](N(C)C(=O)[C@@H](NC(=O)[C@@H]2C[C@@H](F)CN2C(=O)[C@@]2(C(F)(F)F)CCCCO2)C2CC2)CCCCCCCN(C)C(=O)[C@H](Cc2cc(Cl)cnc2-c2cnn(C)c2)N(C)C1=O [Example 248] ({Oxane2carbonyl(2R-CF3)}-[Pro(trans-4-F)][Gly(cPr)][NMehhhLys(Me)]L[X174]; lactam 3-C)	–	–	–	40	20	20	20	100	–
CC(C)C[C@@H]1NC(=O)[C@@H](N(C)C(=O)[C@H](C)NC(=O)[C@@H]2C[C@@H](F)CN2C(=O)C2(C(F)(F)F)CC(F)(F)C2)CCCCCCCNC(=O)[C@H](Cc2cc(Cl)ccc2Cl)N(C)C1=O [Example 55] ({cBuCO(3,3-F2-1-CF3)}-[Pro(trans-4-F)]A[NMe(hhhLys)]L[NMePhe(2,5-Cl2)]; lactam 3-C)	700	80	3930	560	710	–	–	–	–
CC(C)C[C@@H]1NC(=O)[C@@H](N(C)C(=O)[C@@H](NC(=O)[C@@H]2C[C@@H](F)CN2C(=O)C2(C(F)(F)F)CC(F)(F)C2)C2CC2)CCCCCCCN(C)C(=O)[C@H](Cc2cc(Cl)ccc2-c2ccn(C)n2)N(C)C1=O [Example 205] ({cBuCO(3,3-F2-1-CF3)}-[Pro(trans-4-F)][Gly(cPr)][NMehhhLys(Me)]L[X188]; lactam 3-C)	–	–	–	20	30	–	20	480	30
COc1cncc(-c2ccc(Cl)cc2C[C@H]2C(=O)N(C)CCCCCCC[C@H](N(C)C(=O)[C@@H](NC(=O)[C@@H]3C[C@@H](F)CN3C(=O)C3(C(F)(F)F)CC(F)(F)C3)C3CC3)C(=O)N[C@@H](CC(C)C)C(=O)N2C)c1 [Example 199] ({cBuCO(3,3-F2-1-CF3)}-[Pro(trans-4-F)][Gly(cPr)][NMehhhLys(Me)]L[X162]; lactam 3-C)	30	20	910	30	50	–	–	–	–
